The values that follow come from patent US20240059691A1 (KALVISTA PHARMACEUTICALS LIMITED, priority 2020, published 2024).

A word on the IC50: it is the concentration needed to halve the response being measured.

Some results are limits rather than exact numbers.

Holding throughout (format): biochemical
One assay addresses Plasma Kallikrein (Homo sapiens (Human), UniProt P03952). Kind of assay: Determination of related protease inhibition: Plasma Kallikrein (fluorogenic substrate at Km). Particulars: 25° C., read-out: IC50 (human PKal). Summed up: (§1)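 Fluorogenic kinetic assay: human enzyme, substrate at Km, titrated inhibitor; 5 min read at 25 °C; IC50 from % of uninhibited rate.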
The target of the next assay is Thrombin (Homo sapiens (Human), UniProt P00734). Kind of assay: Determination of related protease inhibition: Thrombin (fluorogenic substrate at Km). Particulars: 25° C. As to the method: Determination of Related Protease Inhibition
In vitro inhibition of related proteases was determined using an ([…] assay based on standard literature methods (see e.g. Shori et al., Biochem. Pharmacol., 1992, 43, 1209; Bouckaert et al., European Journal of Medicinal Chemistry 110 (2016) 181). Human serine protease enzymes Plasma Kallikrein, KLK1, FXa, Plasmin, Thrombin and Trypsin were assayed for enzymatic activity using an appropriate fluorogenic substrate at Km concentration, FXIa at fixed substrate concentration of 100 μM, and various concentrations of the test compound. Protease activity was measured by monitoring the accumulation of liberated fluorescence from the substrate over […]. The linear rate of fluorescence increase per minute was expressed as percentage (%) activity. IC50 values were calculated as the concentration of inhibitor giving 50% inhibition of the uninhibited enzyme activity (100%).

Another assay has as its target FXa (Homo sapiens (Human), UniProt P00742). Kind of assay: Determination of related protease inhibition: FXa (fluorogenic substrate at Km). Particulars: 25° C. Summed up:
as §1

A further assay concerns the target KLK1 (Homo sapiens (Human), UniProt P06870). Kind of assay: Determination of related protease inhibition: KLK1 (fluorogenic substrate at Km). Particulars: 25° C. Summed up:
as §1

The next assay addresses Human Factor XIIa (Homo sapiens (Human), UniProt P00748). Kind of assay: Determination of FXIIa inhibition (fluorogenic substrate H-DPro-Phe-Arg-AFC, IC50 assay). The note with it: substrate H-DPro-Phe-Arg-AFC at Km, 25° C.; class scale A-G. Summed up:
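IC50 derived from % remaining activity, taken as the linear fluorescence rate over a 5 min read at 25° C. Substrate H-DPro-Phe-Arg-AFC was used at its Km (Michaelis-Menten) with human FXIIa and serial compound dilutions, 25° C.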

FXa, sequence (P00742 235-488): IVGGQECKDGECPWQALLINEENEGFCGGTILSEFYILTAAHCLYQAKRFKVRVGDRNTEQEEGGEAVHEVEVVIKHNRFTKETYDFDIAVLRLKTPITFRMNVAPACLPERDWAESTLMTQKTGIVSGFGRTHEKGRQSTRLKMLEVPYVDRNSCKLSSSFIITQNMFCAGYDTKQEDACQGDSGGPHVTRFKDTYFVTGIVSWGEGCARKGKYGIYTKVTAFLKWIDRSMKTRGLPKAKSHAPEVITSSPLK
FXa, sequence (P00742 41-179 partner): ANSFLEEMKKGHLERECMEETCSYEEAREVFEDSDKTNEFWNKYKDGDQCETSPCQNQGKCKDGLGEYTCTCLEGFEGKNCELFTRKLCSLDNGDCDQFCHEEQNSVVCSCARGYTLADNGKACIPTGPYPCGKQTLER
Plasma Kallikrein, sequence (P03952 391-638): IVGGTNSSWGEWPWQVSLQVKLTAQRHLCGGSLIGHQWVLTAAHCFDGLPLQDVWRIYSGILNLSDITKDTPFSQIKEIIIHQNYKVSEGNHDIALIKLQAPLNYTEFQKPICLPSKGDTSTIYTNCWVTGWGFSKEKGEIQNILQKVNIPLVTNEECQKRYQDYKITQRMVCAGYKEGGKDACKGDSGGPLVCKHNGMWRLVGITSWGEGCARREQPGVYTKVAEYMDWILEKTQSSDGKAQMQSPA
Plasma Kallikrein, sequence (P03952 20-390 partner): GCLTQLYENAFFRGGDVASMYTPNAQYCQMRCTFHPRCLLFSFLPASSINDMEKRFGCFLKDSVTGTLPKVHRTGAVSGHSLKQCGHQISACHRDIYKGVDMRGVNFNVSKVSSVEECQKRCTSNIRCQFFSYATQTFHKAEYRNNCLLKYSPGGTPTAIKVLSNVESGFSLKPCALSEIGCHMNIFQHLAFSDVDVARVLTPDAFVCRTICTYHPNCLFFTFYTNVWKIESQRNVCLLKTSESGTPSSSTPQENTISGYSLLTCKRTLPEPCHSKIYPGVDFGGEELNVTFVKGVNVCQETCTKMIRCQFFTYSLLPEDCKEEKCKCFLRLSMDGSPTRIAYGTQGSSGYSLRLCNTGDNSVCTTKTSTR
KLK1, sequence (P06870 25-262): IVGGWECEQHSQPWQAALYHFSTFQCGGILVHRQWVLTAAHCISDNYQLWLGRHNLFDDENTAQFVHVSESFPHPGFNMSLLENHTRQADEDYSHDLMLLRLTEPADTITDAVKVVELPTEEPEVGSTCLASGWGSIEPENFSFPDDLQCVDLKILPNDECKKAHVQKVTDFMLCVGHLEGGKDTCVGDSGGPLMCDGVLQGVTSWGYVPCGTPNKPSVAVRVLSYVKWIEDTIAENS
Human Factor XIIa, sequence (P00748 373-615): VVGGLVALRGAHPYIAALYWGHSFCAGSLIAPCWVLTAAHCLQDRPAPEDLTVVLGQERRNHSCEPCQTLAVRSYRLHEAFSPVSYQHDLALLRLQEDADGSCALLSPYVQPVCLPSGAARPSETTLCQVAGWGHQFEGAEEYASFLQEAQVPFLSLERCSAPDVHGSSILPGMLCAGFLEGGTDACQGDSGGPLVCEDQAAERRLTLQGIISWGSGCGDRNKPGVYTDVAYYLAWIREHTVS

As for `CC(=O)N1CC2CC1CC2COc1cc(CNc2cccc3c(N)nccc23)ccn1` (stereo not shown) [Example 4274, 1-(5-(((4-(((1-Aminoisoquinolin-5-yl)amino)methyl)pyridin-2-yl)oxy)methyl)-2-azabicyclo[2.2.1]heptan-2-yl)ethan-1-one], the IC50 at Plasma Kallikrein was above 40 µM; against Thrombin it was 10 to 40 µM; against FXa it was 1 to 3 µM; at KLK1, 3 to 10 µM; on Human Factor XIIa, 1 to 3 µM.

On to `Cn1ccnc1CCOCc1ccc(CNc2cccc3c(N)nccc23)c(F)c1` [Example 2208, N5-[[2-fluoro-4-[2-(1-methylimidazol-2-yl)ethoxymethyl]phenyl]methyl]isoquinoline-1,5-diamine], for which the IC50 on Plasma Kallikrein is above 40 µM; at Thrombin, 10 to 40 µM; on FXa, 10 to 40 µM; against KLK1, 10 to 40 µM; at Human Factor XIIa it was 1 to 3 µM.

For `Nc1nccc2cc(NCc3ccnc(OCC4CCn5ccnc5C4)c3)ccc12` (single isomer, unassigned) [Example 4267, 6-N-({2-[(7S*)-5H,6H,7H,8H-imidazo[1,2-a]pyridin-7-ylmethoxy]pyridin-4-yl}methyl)isoquinoline-1,6-diamine], the IC50 on Plasma Kallikrein lay within 3 to 10 µM; against Thrombin, 0.3 to 1 µM; at FXa, 0.1 to 0.3 µM; against KLK1, 0.3 to 1 µM; on Human Factor XIIa, 0.01 to 0.1 µM.

Regarding `Cc1cn2c(n1)CC(COc1cc(CNc3cccc4c(N)nccc34)ccn1)CC2` (stereo not shown) [Example 4319, N5-[[2-[(2-methyl-5,6,7,8-tetrahydroimidazo[1,2-a]pyridin-7-yl)methoxy]-4-pyridyl]methyl]isoquinoline-1,5-diamine], the IC50 on Plasma Kallikrein was 3 to 10 µM; at Thrombin, above 40 µM; against FXa, 10 to 40 µM; at KLK1 it was 3 to 10 µM; on Human Factor XIIa it was 0.1 to 0.3 µM.

Take `CN1CCC(CNc2cc(CNc3cccc4c(N)nccc34)ccn2)CC1` [Example 4286, N5-((2-(((1-methylpiperidin-4-yl)methyl)amino)pyridin-4-yl)methyl)isoquinoline-1,5-diamine]: the IC50 was 10 to 40 µM on Plasma Kallikrein; above 40 µM against Thrombin; above 40 µM at FXa; 3 to 10 µM on KLK1; 0.3 to 1 µM against Human Factor XIIa.

Consider `CN1CCC(CNc2ccc(CNc3ccc4cnccc4c3Cl)cn2)CC1` [Example 1209, 5-chloro-N-((6-(((1-methylpiperidin-4-yl)methyl)amino)pyridin-3-yl)methyl)isoquinolin-6-amine], for which the IC50 at Plasma Kallikrein was above 40 µM; at Thrombin, above 40 µM; against FXa it was above 40 µM; on KLK1, above 40 µM; against Human Factor XIIa, 3 to 10 µM.

As to `CN1CC2C(COc3cc(CNc4ccc5c(N)nccc5c4)ccn3)C2C1` (stereo not shown) [Example 4269, N6-((2-((3-methyl-3-azabicyclo[3.1.0]hexan-6-yl)methoxy)pyridin-4-yl)methyl)isoquinoline-1,6-diamine], the IC50 at Plasma Kallikrein lay in the range of 3 to 10 µM; against Thrombin, 0.3 to 1 µM; against FXa it was 0.01 to 0.1 µM; against KLK1, 0.3 to 1 µM; against Human Factor XIIa, 0.1 to 0.3 µM.

As to `Cn1ccnc1COCc1ccc(CNc2cccc3c(N)nccc23)c(F)c1` [Example 2207, N5-(2-fluoro-4-(((1-methyl-1H-imidazol-2-yl)methoxy)methyl)benzyl)isoquinoline-1,5-diamine], the IC50 at Plasma Kallikrein is 3 to 10 µM; at Thrombin, 10 to 40 µM; against FXa it was 10 to 40 µM; against KLK1 it was 10 to 40 µM; on Human Factor XIIa it was 1 to 3 µM.

`CC(C)N1CCC(CN(CCCO)C(=O)c2cccc(CNc3cccc4c(N)nccc34)c2)CC1` [Example 4441, 3-{[(1-aminoisoquinolin-5-yl)amino]methyl}-N-(3-hydroxypropyl)-N-[(1-isopropylpiperidin-4-yl)methyl]benzamide]: the IC50 was 10 to 40 µM at Plasma Kallikrein; above 40 µM at Thrombin; above 40 µM against FXa; 1 to 3 µM against KLK1; 0.1 to 0.3 µM against Human Factor XIIa.

For `CN1CCC(COc2cc(CNc3ccnc4c(N)nccc34)ccn2)CC1` [Example 4272, 4-N-[[2-[(1-methyl-4-piperidyl)methoxy]-4-pyridyl]methyl]-1,7-naphthyridine-4,8-diamine], the IC50 was above 40 µM on Plasma Kallikrein; above 40 µM against Thrombin; above 40 µM on FXa; above 40 µM against KLK1; 3 to 10 µM against Human Factor XIIa.

On to `Cc1nnc2n1CCN(c1ccc(CNc3cccc4c(N)nccc34)cn1)C2` [Example 1279, N5-((6-(3-methyl-5,6-dihydro-[1,2,4]triazolo[4,3-a]pyrazin-7(8H)-yl)pyridin-3-yl)methyl)isoquinoline-1,5-diamine], for which the IC50 was above 40 µM at Plasma Kallikrein; above 40 µM on Thrombin; above 40 µM on FXa; 3 to 10 µM at KLK1; 0.1 to 0.3 µM against Human Factor XIIa.

For the compound `Nc1nccc2c(NCc3ccc(CCN4CCOCC4)cc3F)cccc12` [Example 2183, N5-[[2-fluoro-4-(2-morpholinoethyl)phenyl]methyl]isoquinoline-1,5-diamine], the IC50 was above 40 µM at Plasma Kallikrein; above 40 µM at Thrombin; above 40 µM at FXa; 10 to 40 µM against KLK1; 0.3 to 1 µM against Human Factor XIIa.

Consider `CN1CC2CC1CC2COc1cc(CNc2cccc3c(N)nccc23)ccn1` (stereo not shown) [Example 4276, 5-N-{[2-({2-methyl-2-azabicyclo[2.2.1]heptan-5-yl}methoxy)pyridin-4-yl]methyl}isoquinoline-1,5-diamine], for which the IC50 on Plasma Kallikrein was above 40 µM; against Thrombin it was above 40 µM; against FXa it was 3 to 10 µM; against KLK1 it was 3 to 10 µM; against Human Factor XIIa it was 0.3 to 1 µM.

As to `CN1CC(C2CN(c3cc(CNc4ccc5c(N)nccc5c4)ccn3)C2)C1` [Example 5435, N6-((2-(1′-methyl-[3,3′-biazetidin]-1-yl)pyridin-4-yl)methyl)isoquinoline-1,6-diamine], the IC50 at Plasma Kallikrein lay within 10 to 40 µM; at Thrombin, 3 to 10 µM; against FXa it was 3 to 10 µM; against KLK1, 1 to 3 µM; on Human Factor XIIa, 1 to 3 µM.

`CN1CCC(CNc2ccc(CNc3cncc4[nH]c(Cl)cc34)cn2)CC1` [Example 1251, 2-Chloro-N-((6-(((1-methylpiperidin-4-yl)methyl)amino)pyridin-3-yl)methyl)-1H-pyrrolo[2,3-c]pyridin-4-amine]: the IC50 on Plasma Kallikrein was 10 to 40 µM; at Thrombin, 3 to 10 µM; on FXa, 1 to 3 µM; against KLK1, 10 to 40 µM; against Human Factor XIIa it was 0.01 to 0.1 µM.

Consider `CN1CCC(CNc2ccc(CNc3ccc4c(N)nccc4c3)cn2)CC1` [Example 1033, N6-((6-(((1-methylpiperidin-4-yl)methyl)amino)pyridin-3-yl)methyl)isoquinoline-1,6-diamine], for which the IC50 was in the range of 1 to 3 µM on Plasma Kallikrein; 3 to 10 µM against Thrombin; 3 to 10 µM at FXa; 0.3 to 1 µM against KLK1; 0.01 to 0.1 µM on Human Factor XIIa.

As to `CN1CC(OCc2ccc(CNc3cccc4c(N)nccc34)c(F)c2)CCC1=O` (stereo not shown) [Example 2209, 5-[[4-[[(1-amino-5-isoquinolyl)amino]methyl]-3-fluoro-phenyl]methoxy]-1-methyl-piperidin-2-one], the IC50 on Plasma Kallikrein is above 40 µM; against Thrombin, above 40 µM; at FXa, above 40 µM; on KLK1, 10 to 40 µM; on Human Factor XIIa it was 1 to 3 µM.

On to `CN1CCC(CNc2cc(CNc3ccc4c(N)ncc(Cl)c4c3)ccn2)CC1` [Example 4285, 4-Chloro-N6-((2-(((1-methylpiperidin-4-yl)methyl)amino)pyridin-4-yl)methyl)isoquinoline-1,6-diamine], for which the IC50 is above 40 µM on Plasma Kallikrein; above 40 µM at Thrombin; 10 to 40 µM on FXa; 3 to 10 µM against KLK1; 0.01 to 0.1 µM at Human Factor XIIa.

Consider `CN1CCN(CCc2ccc(CNc3ccc4c(N)ncc(Cl)c4c3)c(F)c2)CC1` [Example 2184, 4-Chloro-N6-[[2-fluoro-4-[2-(4-methylpiperazin-1-yl)ethyl]phenyl]methyl]isoquinoline-1,6-diamine], for which the IC50 was above 40 µM at Plasma Kallikrein; above 40 µM against Thrombin; above 40 µM at FXa; 3 to 10 µM on KLK1; 3 to 10 µM against Human Factor XIIa.

With `CC(C)N1C[C@H]2C[C@@H]1CN2CCc1ccc(CNc2ccc3c(N)ncc(Cl)c3c2)c(F)c1` [Example 2214, 4-chloro-6-N-[(2-fluoro-4-{2-[(1R,4R)-5-isopropyl-2,5-diazabicyclo[2.2.1]heptan-2-yl]ethyl}phenyl)methyl]isoquinoline-1,6-diamine], the IC50 at Plasma Kallikrein is 10 to 40 µM; at Thrombin, above 40 µM; against FXa it was above 40 µM; on KLK1 it was 3 to 10 µM; against Human Factor XIIa, 0.3 to 1 µM.
